# Assay results from patent publication US20080039438A1, “1B-Methylcarbapenem Derivative and Process for the Preparation Thereof” (Korea Institute of Science and Technology, priority 2004, published 2008).
# What was measured:
# Format in all cases: cell-based
# [1] = tested on: Enterococcus faecium; assay: MIC against clinically isolated aerobic Gram-positive strains; settings: clinically isolated Enterococcus faecium, 29 strains
# [2] = tested on: Proteus mirabilis; assay: MIC against clinically isolated aerobic Gram-negative strains; settings: 15 strains
# [3] = tested on: Providentia sp.; assay: as above; settings: 13 strains
# [4] = tested on: Enterobacter aerogenes; assay: as above; settings: 14 strains
# [5] = tested on: Citrobacter freundii; assay: as above; settings: 14 strains
# [6] = tested on: Streptococcus pyogenes; assay: MIC against clinically isolated aerobic Gram-positive strains; settings: 15 strains
# [7] = tested on: Klebsiella oxytoca; assay: MIC against clinically isolated aerobic Gram-negative strains; settings: 15 strains
# [8] = tested on: Acinetobacter baumannii; assay: as above; settings: 30 strains
# [9] = tested on: Enterobacter cloacae; assay: as above; settings: 29 strains
# [10] = tested on: Peptostreptococcus spp.; assay: MIC against clinically isolated anaerobic Gram-positive strains; settings: 27 strains
# [11] = tested on: Streptococcus agalactiae; assay: MIC against clinically isolated aerobic Gram-positive strains; settings: 15 strains
# [12] = tested on: Morganella morganii; assay: MIC against clinically isolated aerobic Gram-negative strains; settings: 15 strains
# [13] = tested on: Moraxella catarrhalis; assay: as above; settings: 24 strains
# [14] = tested on: Proteus vulgaris; assay: as above; settings: 15 strains
# [15] = tested on: Staphylococcus coagulase; assay: MIC against clinically isolated aerobic Gram-positive strains; settings: Staphylococcus
# [16] = tested on: Bacteroides spp.; assay: MIC against clinically isolated anaerobic Gram-negative strains; settings: 11 strains
# [17] = tested on: Methicillin-sensitive Staphylococcus aureus; assay: MIC against clinically isolated aerobic Gram-positive strains; settings: 33 strains
# [18] = tested on: Clostridium difficile; assay: MIC against clinically isolated anaerobic Gram-positive strains; settings: 15 strains
# Procedure: The in vitro antibacterial activities of the sodium 3-carboxylate compound of the present invention prepared in the above Example were measured against standard strains (Table 1), clinically isolated aerobic Gram-positive strains (Table 2), clinically isolated aerobic Gram-negative strains (Table 3), clinically isolated anaerobic Gram-positive strains (Table 4) and clinically isolated anaerobic Gram-negative strains (Table 5) using Gram-positive bacteria such as Streptococcus and Staphylococcus, Gram-negative bacteria such as Escherichia, Salmonella, Krebsiella and Enterobacter. Imipenem (IPM), meropenem (MPM) and ertapenem (EPM) were used as control groups.
# The results are shown in Tables 1 to 5, and MIC50 and MIC90 represent the concentrations at which the test strain's growth was inhibited to the extents of 50% and 90%, respectively.
# [19] = tested on: Pseudomonas aeruginosa; assay: MIC against clinically isolated aerobic Gram-negative strains; settings: 60 strains
# [20] = tested on: Escherichia coli; assay: as above; settings: 30 strains
# [21] = tested on: Bacteroides thetaiotaomicron; assay: MIC against clinically isolated anaerobic Gram-negative strains
# [22] = tested on: Serratia marcescens; assay: MIC against clinically isolated aerobic Gram-negative strains; settings: 14 strains
# [23] = tested on: Bacteroides fragilis; assay: MIC against clinically isolated anaerobic Gram-negative strains; settings: 34 strains
# [24] = tested on: Clostridium perfringens; assay: microbe, parasite or virus in culture
# [25] = tested on: Streptococcus pneumoniae; assay: MIC against clinically isolated aerobic Gram-positive strains; settings: 22 strains
# [26] = tested on: Haemophilus influenzae; assay: MIC against clinically isolated aerobic Gram-negative strains; settings: 24 strains
# [27] = tested on: Klebsiella pneumoniae; assay: as above; settings: 30 strains
# [28] = tested on: Enterococcus faecalis; assay: MIC against clinically isolated aerobic Gram-positive strains; settings: 30 strains
structure (smiles),measurement,setting,value
"C[C@@H](O)[C@H]1C(=O)N2C(C(=O)O)=C(S[C@@H]3CN[C@H](C(=O)Nc4cccc(C(=O)O)c4)C3)[C@H](C)[C@H]12 [EPM, ertapenem]",MIC Range,[1],32 to 128 mg/L
same,MIC50,[1]; read-out: MIC50,128 mg/L
same,MIC90,[1]; read-out: MIC90,128 mg/L
same,MIC50,[2],0.008 mg/L
same,MIC90,[2],0.015 mg/L
same,MIC Range,[2],0.008 to 0.015 mg/L
same,MIC50,[3],0.03 mg/L
same,MIC90,[3],16 mg/L
same,MIC Range,[3],0.008 to 16 mg/L
same,MIC Range,[4],0.008 to 0.5 mg/L
same,MIC50,[4]; Klebsiella aerogenes,0.06 mg/L
same,MIC90,[4]; Klebsiella aerogenes,0.5 mg/L
same,MIC50,[5],0.008 mg/L
same,MIC90,[5],0.25 mg/L
same,MIC Range,[5],0.008 to 0.5 mg/L
same,MIC50,[6],0.15 mg/L
same,MIC90,[6],0.15 mg/L
same,MIC Range,[6],0.008 to 0.015 mg/L
same,MIC50,[7],0.008 mg/L
same,MIC90,[7],0.008 mg/L
same,MIC Range,[7],0.008 to 0.25 mg/L
same,MIC50,[8],8 mg/L
same,MIC90,[8],64 mg/L
same,MIC Range,[8],4 to 128 mg/L
same,MIC50,[9],0.12 mg/L
same,MIC90,[9],2 mg/L
same,MIC Range,[9],0.015 to 2 mg/L
same,MIC50,[10],0.12 mg/L
same,MIC90,[10],4 mg/L
same,MIC Range,[10],0.06 to 4 mg/L
same,MIC50,[11],0.06 mg/L
same,MIC90,[11],0.06 mg/L
same,MIC Range,[11],0.03 to 0.06 mg/L
same,MIC50,[12],0.008 mg/L
same,MIC90,[12],0.03 mg/L
same,MIC Range,[12],0.008 to 0.03 mg/L
same,MIC50,[13],0.015 mg/L
same,MIC90,[13],0.03 mg/L
same,MIC Range,[13],0.008 to 0.12 mg/L
same,MIC50,[14],0.015 mg/L
same,MIC90,[14],0.015 mg/L
same,MIC Range,[14],0.008 to 0.03 mg/L
same,MIC50,[15],0.25 mg/L
same,MIC90,[15],0.5 mg/L
same,MIC50,[16],1 mg/L
same,MIC90,[16],2 mg/L
same,MIC Range,[16],0.5 to 2 mg/L
same,MIC50,[17],0.25 mg/L
same,MIC90,[17],0.25 mg/L
same,MIC Range,[17],0.25 to 0.5 mg/L
same,MIC Range,[18],4 to 8 mg/L
same,MIC50,[18]; Clostridioides difficile,4 mg/L
same,MIC90,[18]; Clostridioides difficile,8 mg/L
same,MIC50,[19],32 mg/L
same,MIC90,[19],128 mg/L
same,MIC Range,[19],1 to 128 mg/L
same,MIC50,[20],0.008 mg/L
same,MIC90,[20],0.12 mg/L
same,MIC Range,[20],0.008 to 4 mg/L
same,MIC50,[21]; Bacteroides thetaiotaomicron,2 mg/L
same,MIC90,[21]; Bacteroides thetaiotaomicron,2 mg/L
same,MIC Range,"[21]; clinically isolated anaerobic Bacteroides thetaiotaomicron, 15 strains",0.25 to 8 mg/L
same,MIC50,[22],0.06 mg/L
same,MIC90,[22],16 mg/L
same,MIC Range,[22],0.015 to 16 mg/L
same,MIC50,[23],0.25 mg/L
same,MIC90,[23],1 mg/L
same,MIC Range,[23],0.12 to 4 mg/L
same,MIC50,[24]; Clostridium perfringens,0.06 mg/L
same,MIC90,[24]; Clostridium perfringens,0.12 mg/L
same,MIC Range,"[24]; clinically isolated anaerobic Clostridium perfringens, 13 strains",0.06 to 0.12 mg/L
same,MIC50,[25],0.5 mg/L
same,MIC90,[25],1 mg/L
same,MIC Range,[25],0.008 to 1 mg/L
same,MIC50,[26],0.12 mg/L
same,MIC90,[26],0.5 mg/L
same,MIC Range,[26],0.12 to 1 mg/L
same,MIC50,[27],0.03 mg/L
same,MIC90,[27],0.5 mg/L
same,MIC Range,[27],0.008 to 1 mg/L
same,MIC50,[28],16 mg/L
same,MIC90,[28],32 mg/L
same,MIC Range,[28],4 to 64 mg/L
